≈ marks a conversion by molar mass, not a printed value.
Legend:
[1] = tested on: Plasmodium falciparum; experiment: Antimalarial activity against mefloquine-resistant Plasmodium falciparum D6 (Sierra Leone) after 24 to 60 hrs by [G-H3]hypoxanthine uptake; type: functional, organism-based
[2] = tested on: Plasmodium falciparum; experiment: Antimalarial activity against chloroquine-resistant Plasmodium falciparum Indochina W2 after 24 to 60 hrs by [G-H3]hypoxanthine uptake; type: functional, organism-based

C[C@@H]1CC[C@H]2[C@@H](C)C(=O)O[C@@H]3O[C@@]4(C)CC[C@@H]1[C@]32OO4 [ARTEMISININ]
IC50 [1]: 2.1 ng/mL (≈ 7.44 nM)

CC(C)=CC(=O)O[C@H]1C(=O)O[C@@H]2C[C@H]3C(C)=CC(=O)[C@@H](O)[C@]3(C)[C@H]3[C@@H](O)[C@H](O)[C@]4(C)OC[C@]32[C@@H]14 [GUTOLACTONE]
IC50 [2]: 4 ng/mL (≈ 8.39 nM) | IC50 [1]: 4.1 ng/mL (≈ 8.6 nM)

OC(c1cc(C(F)(F)F)nc2c(C(F)(F)F)cccc12)C1CCCCN1 (configuration not stated) [MEFLOQUINE]
IC50 [2]: 1.5 ng/mL (≈ 3.96 nM)

C=C[C@H]1CN2CC[C@H]1C[C@H]2[C@H](O)c1ccnc2ccc(OC)cc12 [QUININE]
IC50 [2]: 68.6 ng/mL (≈ 211 nM)

CC[C@@H](C)C(=O)O[C@H]1C(=O)O[C@@H]2C[C@H]3C(C)=CC(=O)[C@@H](O)[C@]3(C)[C@H]3[C@@H](O)[C@H](O)[C@]4(C)OC[C@]32[C@@H]14 [SIMALIKALACTONE D]
IC50 [2]: 1.6 ng/mL (≈ 3.34 nM) | IC50 [1]: 1.5 ng/mL (≈ 3.13 nM)

— ChEMBL document CHEMBL1147396, “A new antimalarial quassinoid from Simaba guianensis” (J Nat Prod, 1993)
